# US20240327364A1, “THERAPEUTIC TARGETING OF GPR68 TO INDUCE FERROPTOSIS” (University Of Maryland, Baltimore, priority 2023, published 2024)
# Columns and labels:
# [1] = test system: U87 glioblastoma cells; assay: Acid-induced calcium flux in U87 cells; type: cell-based, human; settings: medium shifted from pH 7.8 to 6.4
# From the text: GPR68 is known to signal through Gq which results in a calcium flux out of the Endoplasmic reticulum. U87 glioblastoma cells were stained, using a calcium-sensitive vital dye Fluo-8, and stimulated with acidification of the media to pH6.4. The cells respond to the acidification with a burst of calcium release, this is inhibited by OGM2.
# To determine if GBM cells respond to their own acidic extracellular milieu as a form of autocrine signaling, calcium release in response to acidification was measured. GPR68 is known to couple to the Gq subunit, which acts to release calcium from the ER in a PLC dependent pathway. The medium was shifted from pH 7.8 to 6.4, which triggered a rapid and robust calcium flux, as measured by the fluorescence intensity of calcium-sensitive dye Cal520-AM. This calcium flux was blocked by OGM2 and PLC inhibitor U73122. FIG. 50A, FIG. 50B, FIG. 50C and FIG. 50D.
# [2] = test system: A549; assay: Liperfluo lipid peroxidation; type: cell-based, human; settings: OGM2 and ionizing radiation
# Method: Where appropriate, ANOVA, or student's T-test were conducted in PRISM. Chi squared T(X) was used for Liperfluo analysis. A value T(X)>4 implies that the two distributions are different with a p<0.01 (99% confidence). For drug interaction and therapeutic interaction, the coefficient of drug interaction (CDI) was calculated as follows: CDI=AB/(A×B). According to the impact of each group, AB is the value of combined treatment and A or B is the value of the single agent group to control group.
# Radiation, like OGM2, induces lipid peroxidation in addition to DNA damage. OGM was tested for its ability to sensitize lung and pancreatic cancers to radiation induced lipid peroxidation and ferroptosis. Cells were incubated at 37° C. in 5% CO2 in […] DMEM with DMSO, OGM2, or Erastin for 3 days. Then 2.5 μM Liperfluo in 3 ml fresh media was added and cells were incubated at 37° C. in 5% CO2 for 1 hour. Cells were then trypsinized, pelleted, and resuspended in cell sorting media (1% BSA and 1 mM EDTA in PBS pH 7.4). A BD LSR II was used to record Ten thousand events and the data processed with FlowJo v10.8. […] All treatments were highly significant with Chi-squared >4 indicating a p<0.01.
# [3] = target: GPR68 (Homo sapiens, UniProt Q15743); assay: SRE-luciferase assay, GPR68-transfected HEK293 cells; type: cell-based; settings: 10 μM OGM2
# Method: 12-well plates of cells were transfected with 1 μg DNA using Lipofectamine 3000 with sre:luciferase and either the vector backbone, GFP, GPR68, GPR68-GFP, GPR4, or 336X-GFP. After 3 days, these cells were then lysed, and cell extracts were subjected to Steady-Glo luciferase assay (Promega™) according to the manufacturer's instructions. The results were normalized to cell titer, as determined using Cell Titer-Glo luminescence assay (Promega™). For some procedure, the cells were treated in serum-free medium, and were lysed on the third day.
# Because GPR4, the paralog with highest homology with GPR68, was not covered in the initial GPCR profiling, whether OGM2 could inhibit GPR4 was tested by examining the effects of OGM2 on acid-induced serum responsive element (SRE) luciferase activity in HEK293 cells transfected with either GPR4 or GPR68. Mild acidification increased luciferase activity in GPR4 and GPR68 transfected cells above that of vector control.
# Cas9^GPR68=GPR68 targeted sgRNA and Cas9; CTL=control; MoGPR68=GPR68 morpholino treatment. […] These cells were exposed to acidic media and assayed for luciferase activity as a readout of the receptor activity.
# [4] = target: T1, sst2 (Homo sapiens, UniProt P30874); assay: GPCR Profiler; type: cell-based
# T1 construct: host or cells: Chem-1 cells with Gα15
# [5] = target: T2, AMPK-alpha1 (Homo sapiens, UniProt Q13131); assay: KinomeScan; type: binding; settings: read-out: % Control
# T2 construct: purchased DiscoveRx (Fremont, CA)
# [6] = target: T3, OX2 (Homo sapiens, UniProt O43614); assay: GPCR Profiler; type: cell-based
# T3 construct: host or cells: Chem-1 cells expressing Gα15
# [7] = target: T4, NPBW1 (Homo sapiens, UniProt P48145); assay: GPCR Profiler; type: cell-based
# T4 construct: host or cells: Chem-1 cells expressing Gα15
# [8] = target: T5, EGFR(T790M) (Homo sapiens, UniProt P00533, T790M); assay: KinomeScan; type: binding; settings: read-out: % Control
# T5 construct: purchased DiscoveRx (Fremont, CA)
# [9] = target: T6, ADCK3 (Homo sapiens, UniProt Q8NI60); assay: KinomeScan; type: binding; settings: read-out: % Control
# T6 construct: purchased DiscoveRx (Fremont, CA)
# [10] = target: T7, ABL1(Q252H)-phosphorylated (Homo sapiens, UniProt P00519, Q252H); assay: KinomeScan; type: binding; settings: read-out: % Control
# T7 construct: purchased DiscoveRx
# [11] = target: T8, CRF2 (Homo sapiens, UniProt Q13324); assay: GPCR Profiler; type: cell-based
# T8 construct: host or cells: Chem-1 cells with Gα15
# [12] = target: T9, M4 (Homo sapiens, UniProt P08173); assay: GPCR Profiler; type: cell-based
# T9 construct: host or cells: Chem-1 cells with promiscuous Gα15
# [13] = target: T10, MET(Y1235D) (Homo sapiens, UniProt P08581, Y1235D); assay: KinomeScan; type: binding; settings: read-out: % Control
# T10 construct: purchased DiscoveRx
# [14] = target: T11, RET(M918T) (Homo sapiens, UniProt P07949, M918T); assay: KinomeScan; type: binding; settings: read-out: % Control
# T11 construct: purchased DiscoveRx (Fremont, CA)
# [15] = target: T12, CDC2L1 (Homo sapiens, UniProt P21127); assay: KinomeScan; type: binding; settings: read-out: % Control
# T12 construct: purchased DiscoveRx (KinomeScan service)
# [16] = target: Lpa1 (Homo sapiens, UniProt Q92633); assay: Lpa1 activity of OGM analogs (Table 5); type: cell-based
# Method: GPCR profiling assays were performed by Millipore (St. Louis, MO) using in cells expressing Gα15, a promiscuous G protein that enhances GPCR coupling to downstream Ca2+ signaling pathways. KinomeScan was conducted by DiscoveRx (Fremont, CA). Since GPCRs represent >30% of targets for FDA-approved small molecules and are known to modulate cell migration, activity against 158 GPCRs was assessed based on their chemical structures. GPCRs (158) were tested for agonist and antagonist activity at 10 μM. […] Chemical segregation analysis of zebrafish phenotype was conducted to further identify the inhibitory activity responsible for the zebrafish phenotype. […] The identities of the R groups in Formula A are shown below in Table 5.
# T8 sequence (Q13324 whole entry): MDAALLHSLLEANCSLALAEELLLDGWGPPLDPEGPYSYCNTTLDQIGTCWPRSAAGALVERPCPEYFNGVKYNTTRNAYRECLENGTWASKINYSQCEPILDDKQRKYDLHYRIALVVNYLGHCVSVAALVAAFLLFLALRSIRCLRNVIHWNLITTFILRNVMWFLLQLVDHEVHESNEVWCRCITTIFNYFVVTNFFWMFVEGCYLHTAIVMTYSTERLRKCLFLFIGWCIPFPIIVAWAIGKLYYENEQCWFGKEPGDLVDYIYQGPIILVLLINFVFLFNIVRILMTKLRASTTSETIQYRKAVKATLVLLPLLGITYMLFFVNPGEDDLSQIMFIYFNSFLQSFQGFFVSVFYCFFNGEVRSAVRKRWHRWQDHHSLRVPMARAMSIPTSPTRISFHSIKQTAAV
# T4 sequence (P48145 whole entry): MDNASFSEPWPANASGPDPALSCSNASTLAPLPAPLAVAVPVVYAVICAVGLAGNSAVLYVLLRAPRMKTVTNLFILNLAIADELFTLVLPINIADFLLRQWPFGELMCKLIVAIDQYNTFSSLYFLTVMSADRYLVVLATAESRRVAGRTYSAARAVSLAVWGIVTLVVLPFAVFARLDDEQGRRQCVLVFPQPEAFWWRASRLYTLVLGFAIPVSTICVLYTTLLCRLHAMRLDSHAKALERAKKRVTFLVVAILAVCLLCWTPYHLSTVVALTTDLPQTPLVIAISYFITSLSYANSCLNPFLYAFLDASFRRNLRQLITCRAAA
# T9 sequence (P08173 whole entry): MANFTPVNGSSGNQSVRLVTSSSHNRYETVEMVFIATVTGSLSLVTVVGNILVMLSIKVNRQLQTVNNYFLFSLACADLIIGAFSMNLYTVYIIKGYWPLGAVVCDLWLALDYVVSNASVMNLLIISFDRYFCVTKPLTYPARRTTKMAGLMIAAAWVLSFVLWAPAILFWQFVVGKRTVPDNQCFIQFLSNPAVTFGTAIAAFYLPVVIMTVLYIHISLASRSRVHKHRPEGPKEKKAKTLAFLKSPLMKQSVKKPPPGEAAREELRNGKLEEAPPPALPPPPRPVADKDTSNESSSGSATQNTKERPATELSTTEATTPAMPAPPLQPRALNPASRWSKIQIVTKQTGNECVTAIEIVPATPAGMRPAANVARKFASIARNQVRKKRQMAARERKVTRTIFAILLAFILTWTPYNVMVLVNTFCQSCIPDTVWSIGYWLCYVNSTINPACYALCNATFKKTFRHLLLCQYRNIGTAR
# T1 sequence (P30874 whole entry, species assumed): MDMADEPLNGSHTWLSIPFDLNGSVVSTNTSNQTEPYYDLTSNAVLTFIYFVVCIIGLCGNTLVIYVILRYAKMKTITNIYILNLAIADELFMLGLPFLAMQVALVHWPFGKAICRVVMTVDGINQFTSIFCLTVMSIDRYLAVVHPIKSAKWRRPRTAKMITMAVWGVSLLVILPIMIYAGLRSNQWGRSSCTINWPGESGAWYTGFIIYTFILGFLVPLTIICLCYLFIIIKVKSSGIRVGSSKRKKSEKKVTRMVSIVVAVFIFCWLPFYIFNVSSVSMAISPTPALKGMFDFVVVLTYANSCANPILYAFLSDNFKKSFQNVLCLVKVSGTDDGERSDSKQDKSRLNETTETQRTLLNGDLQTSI
# T3 sequence (O43614 whole entry): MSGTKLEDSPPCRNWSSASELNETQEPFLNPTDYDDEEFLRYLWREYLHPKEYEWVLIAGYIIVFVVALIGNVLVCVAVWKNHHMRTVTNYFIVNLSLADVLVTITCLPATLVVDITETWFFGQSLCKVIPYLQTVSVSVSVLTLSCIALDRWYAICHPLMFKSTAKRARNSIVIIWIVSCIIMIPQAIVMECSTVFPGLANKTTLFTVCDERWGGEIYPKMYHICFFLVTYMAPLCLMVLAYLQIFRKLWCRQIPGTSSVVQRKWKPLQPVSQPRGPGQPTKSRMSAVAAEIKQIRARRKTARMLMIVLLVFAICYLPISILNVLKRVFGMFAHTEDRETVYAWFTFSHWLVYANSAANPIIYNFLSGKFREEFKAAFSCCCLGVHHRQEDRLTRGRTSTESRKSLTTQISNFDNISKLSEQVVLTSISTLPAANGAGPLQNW
# Chain of GPR68 (Q15743 whole entry): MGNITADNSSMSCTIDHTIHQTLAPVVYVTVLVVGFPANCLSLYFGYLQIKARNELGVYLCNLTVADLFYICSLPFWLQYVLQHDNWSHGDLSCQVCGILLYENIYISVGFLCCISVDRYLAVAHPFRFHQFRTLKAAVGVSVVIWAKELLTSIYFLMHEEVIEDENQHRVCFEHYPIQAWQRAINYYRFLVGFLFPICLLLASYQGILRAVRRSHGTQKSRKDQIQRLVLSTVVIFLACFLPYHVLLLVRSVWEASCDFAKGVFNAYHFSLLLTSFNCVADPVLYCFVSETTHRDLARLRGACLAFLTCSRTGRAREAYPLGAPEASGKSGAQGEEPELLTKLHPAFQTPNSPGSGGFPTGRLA
# T12 sequence (P21127 whole entry): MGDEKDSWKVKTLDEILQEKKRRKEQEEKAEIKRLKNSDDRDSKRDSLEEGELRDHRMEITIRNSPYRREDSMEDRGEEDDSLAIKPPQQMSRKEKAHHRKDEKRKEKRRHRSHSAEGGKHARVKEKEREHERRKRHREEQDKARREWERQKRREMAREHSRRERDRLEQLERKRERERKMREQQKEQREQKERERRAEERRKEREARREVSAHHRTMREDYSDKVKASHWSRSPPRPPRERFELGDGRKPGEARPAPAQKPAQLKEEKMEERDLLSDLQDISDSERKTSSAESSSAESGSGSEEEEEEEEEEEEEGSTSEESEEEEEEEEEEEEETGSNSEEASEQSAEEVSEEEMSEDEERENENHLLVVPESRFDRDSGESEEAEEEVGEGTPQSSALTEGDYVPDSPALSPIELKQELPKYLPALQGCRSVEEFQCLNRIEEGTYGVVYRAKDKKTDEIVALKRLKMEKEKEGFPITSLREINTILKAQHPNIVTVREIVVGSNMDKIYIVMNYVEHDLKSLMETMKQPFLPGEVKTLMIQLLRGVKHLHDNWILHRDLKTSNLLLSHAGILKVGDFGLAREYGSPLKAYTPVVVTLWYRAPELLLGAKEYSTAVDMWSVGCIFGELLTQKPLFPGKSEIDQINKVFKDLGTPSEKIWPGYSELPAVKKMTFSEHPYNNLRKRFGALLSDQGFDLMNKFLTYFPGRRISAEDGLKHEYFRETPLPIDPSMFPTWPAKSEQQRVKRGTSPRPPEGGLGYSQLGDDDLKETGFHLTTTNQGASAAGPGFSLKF
# T5 sequence (P00533 25-1210 T790M): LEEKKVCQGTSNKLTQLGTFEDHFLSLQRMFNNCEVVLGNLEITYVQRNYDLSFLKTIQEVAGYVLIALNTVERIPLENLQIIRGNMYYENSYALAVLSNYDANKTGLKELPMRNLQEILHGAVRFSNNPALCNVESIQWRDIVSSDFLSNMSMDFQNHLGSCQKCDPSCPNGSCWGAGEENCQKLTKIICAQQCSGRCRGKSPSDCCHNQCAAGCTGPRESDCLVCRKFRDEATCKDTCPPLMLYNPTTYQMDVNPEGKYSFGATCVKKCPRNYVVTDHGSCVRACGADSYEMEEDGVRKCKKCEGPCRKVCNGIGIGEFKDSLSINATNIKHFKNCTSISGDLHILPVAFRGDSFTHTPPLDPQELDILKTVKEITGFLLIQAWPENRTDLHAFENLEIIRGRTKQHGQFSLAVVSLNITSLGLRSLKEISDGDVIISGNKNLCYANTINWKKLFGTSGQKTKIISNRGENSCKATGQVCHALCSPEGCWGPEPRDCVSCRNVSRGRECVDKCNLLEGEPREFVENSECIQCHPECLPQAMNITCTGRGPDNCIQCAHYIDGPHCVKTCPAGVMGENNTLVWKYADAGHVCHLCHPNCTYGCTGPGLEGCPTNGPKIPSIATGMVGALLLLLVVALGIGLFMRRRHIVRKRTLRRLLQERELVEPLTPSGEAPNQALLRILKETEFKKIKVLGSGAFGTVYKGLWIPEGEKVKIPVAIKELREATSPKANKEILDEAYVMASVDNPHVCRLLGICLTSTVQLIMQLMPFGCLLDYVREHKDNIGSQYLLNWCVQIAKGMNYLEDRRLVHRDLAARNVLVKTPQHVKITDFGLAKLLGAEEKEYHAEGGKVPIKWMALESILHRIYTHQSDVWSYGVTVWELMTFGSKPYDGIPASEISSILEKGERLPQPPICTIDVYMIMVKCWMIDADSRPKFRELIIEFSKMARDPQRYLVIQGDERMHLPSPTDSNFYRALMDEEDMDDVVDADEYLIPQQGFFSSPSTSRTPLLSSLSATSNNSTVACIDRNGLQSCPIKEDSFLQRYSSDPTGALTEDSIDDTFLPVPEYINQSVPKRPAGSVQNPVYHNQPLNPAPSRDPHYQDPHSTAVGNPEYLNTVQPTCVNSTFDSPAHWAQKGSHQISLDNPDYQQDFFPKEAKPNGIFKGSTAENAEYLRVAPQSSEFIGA
# T2 sequence (Q13131 whole entry): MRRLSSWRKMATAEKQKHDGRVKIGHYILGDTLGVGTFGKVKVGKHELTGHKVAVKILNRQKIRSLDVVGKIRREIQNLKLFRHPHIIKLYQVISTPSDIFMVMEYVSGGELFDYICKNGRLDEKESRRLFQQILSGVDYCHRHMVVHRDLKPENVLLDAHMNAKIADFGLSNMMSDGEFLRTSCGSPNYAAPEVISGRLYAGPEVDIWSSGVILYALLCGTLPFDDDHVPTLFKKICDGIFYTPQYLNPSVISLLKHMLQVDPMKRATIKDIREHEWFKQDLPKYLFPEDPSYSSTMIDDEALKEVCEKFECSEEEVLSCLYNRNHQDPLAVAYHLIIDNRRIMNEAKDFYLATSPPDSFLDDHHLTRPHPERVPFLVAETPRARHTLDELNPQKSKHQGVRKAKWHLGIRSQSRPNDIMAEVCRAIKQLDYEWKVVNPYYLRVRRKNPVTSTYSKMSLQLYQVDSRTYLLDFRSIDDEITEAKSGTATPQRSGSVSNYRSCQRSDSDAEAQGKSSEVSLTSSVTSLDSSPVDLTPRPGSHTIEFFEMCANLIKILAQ
smiles,measurement,setting,value
CCc1ccc2c(c1)C1(NN=C(c3ccccc3)S1)C(=O)N2 (stereo not drawn) [OGM2],acid-induced calcium flux,[1],blocked
same,"CDI, lipid peroxidation",[2],< 0.232
same,acid-induced SRE-luciferase activity,[3],completely inhibited the signal
"CCc1ccc2c(c1)C1(NN=C(c3cccc4ccccc34)S1)C(=O)N2 (stereo not drawn) [OGM1, 5-ethyl-5′-naphthalen-1-ylspiro[1H-indole-3,2′-3H-1,3,4-thiadiazole]-2-one]",Antagonism,[4]; 10 uM,−1
same,Agonism,[4]; 12.5 uM,−0.2
same,remaining binding at 10 µM,[5],100%
same,Antagonism,[6]; 10 uM,−3.4
same,Agonism,[6]; 12.5 uM,0.2
same,Antagonism,[7]; 10 uM,22.8
same,Agonism,[7]; 12.5 uM,0.5
same,remaining binding at 10 µM,[8],74%
same,remaining binding at 10 µM,[9],100%
same,remaining binding at 10 µM,[10],94%
same,Antagonism,[11]; 10 uM,−13.7
same,Agonism,[11]; 12.5 uM,0.6
same,Antagonism,[12]; 10 uM,−2.8
same,Agonism,[12]; 12.5 uM,−0.6
same,remaining binding at 10 µM,[13],100%
same,remaining binding at 10 µM,[14],92%
same,remaining binding at 10 µM,[15],92%
same,IC50,[16],8.7 µM
